Assay results as given in patent US6124352A (priority 1994, dated 2000).
Values after ≈ are worked out from the molar mass of the structure shown.

Assays:
[1] = tested on: mice; test: Acute intravenous toxicity (LD50); type: in vivo; conditions: one intravenous dose, observed for 14 days
Experimental: (§1) The acute intravenous toxicity of 3,5-dibromo-2,6-dinitrobenzoic acid in mice is assessed by determining the mean lethal dose (LD50) using a well-known method. Mice are fed a standard laboratory diet for 8-10 weeks. Five animals of each sex are administered one intravenous dose of 3,5-dibromo-[…] acid. The animals are observed for 14 days, and the number of deaths noted.

[2] = tested on: Candida albicans; test: Relative in vitro efficacy (growth inhibition of Candida albicans on agar replicate plates); type: cell-based; conditions: 100-150 cells of Candida albicans plated on replicate agar plates containing 15 μg of compound
Experimental: These relative efficacy numbers were obtained by plating 100-150 cells of Candida albicans on replicate agar plates containing 15 μg of the named compound and by determining the relative growth inhibition of each compound.

[3] = tested on: Candida albicans; test: In Vitro fungicidal test (number of colonies/plate); conditions: for Number of Colonies/Plate, Plate No. 1 / Number of Colonies/Plate, Plate No. 2 / Number of Colonies/Plate, Plate No. 3 / Number of Colonies/Plate, Plate No. 4 / Number of Colonies/Plate, Plate No. 5 / Number of Colonies/Plate, Plate No. 6 / Number of Colonies/Plate, Plate No. 7 / Number of Colonies/Plate, Plate No. 8 / Number of Colonies/Plate, Plate No. 9: drug final concentration 0.1 mg/ml, 80 min at 30° C., plates 48 hours; for Number of Colonies/Plate, Plate No. 1: plate 1; for Number of Colonies/Plate, Plate No. 2: plate 2; for Number of Colonies/Plate, Plate No. 3: plate 3; for Number of Colonies/Plate, Plate No. 4: plate 4; for Number of Colonies/Plate, Plate No. 5: plate 5; for Number of Colonies/Plate, Plate No. 6: plate 6; for Number of Colonies/Plate, Plate No. 7: plate 7; for Number of Colonies/Plate, Plate No. 8: plate 8; for Number of Colonies/Plate, Plate No. 9: plate 9
Experimental: The 10% wlw malt extract, 2% agar solution used for plating in this test was prepared by mixing 100 g malt extract, 20 g agar, and a pellet of sodium hydroxide (about 0.1 g) in 1 liter of distilled, deionized water (DDW). This solution was sterilized by autoclaving, and then poured into plates.
The yeast-malt (YM) broth was composed of 3 g yeast extract, 3 g malt extract, 5 g peptone, and 10 g glucose in 1 liter DDW. The solution was brought to pH 7.2 with inorganics (e.g., hydrochloric acid or sodium hydroxide), then sterilized by autoclaving.
Stock solutions of the drugs to be tested were made in a mixture of dimethylformamide (DMF) and 0.05 M phosphate buffer at pH 7.2, combined in a 4:6 ratio of DME to buffer. Test solutions of 1 mg/ml solutions were prepared.
Two control solutions were prepared. One was the phosphate buffer as described above, the other was a mixture of DMF and the buffer in a 4:6 ratio as described above.
All drug and control solutions were sterilized by filtration through a 0.2 g filter.

[4] = Acute intravenous toxicity (LD50); type: in vivo; conditions: mouse, in vivo; mice, one intravenous dose, observed for 14 days
Experimental: as §1

[5] = tested on: Asperigillus; test: Serial Dilution Assay, Aspergillus; type: cell-based
Experimental: (§2) Serial dilution assays of 3,5-dibromo-2,6-dinitrobenzoic acid and nystatin were performed on Candida albicans, Trichophyton or Asperigillus. 9 ml (1×10^4 cells) of each diluted yeast suspension was added to 1 ml of various serial dilutions of the drug to be tested in 15 ml centrifuge tubes. The final drug concentrations ranged from 0.1 to 0.0001 mg/ml. Two control tubes were also prepared using DDW instead of a drug solution. The tubes were capped and incubated for 24 hours at 30° with shaking at 200 rpm. The fungal growth was assessed by measuring optical density at 600 nm using a nephelometer.

[6] = tested on: Candida albicans; test: Serial Dilution Assay, Candida albicans; type: cell-based; conditions: 24 hours at 30°, OD 600 nm
Experimental: as §2

[7] = tested on: Trichophyton; test: Serial Dilution Assay, Trichophyton; type: cell-based; conditions: 24 hours at 30°, OD 600 nm
Experimental: as §2

[8] = Water solubility; type: physicochemical; conditions: in words
[9] = tested on: bacteria; test: Activity against bacteria, second independent laboratory (standard agar dilution method); type: cell-based; conditions: Isosensitest agar
Experimental: (§3) The second laboratory compared the minimum inhibitory concentrations (μg/ml) of 3,5-dichloro-2,6-dinitrobenzoic acid and Amphotericin B, an antifungal agent. The strains were plated, in the standard agar dilution method, on Isosensitest agar containing a single antifungal agent. […] As such, when Amphotericin B is tested in agar, its activity appears higher than it would in vivo.

[10] = tested on: nine fungal strains (Candida spp., Cryptococcus neoformans, Aspergillus fumigatus); test: Minimum inhibitory concentration, first independent laboratory (broth); type: cell-based; conditions: HR/Mops broth and Sabouraud dextrose broth
Experimental: Additional in vitro evaluation of the antifungal activity of the compounds was performed by two independent testing laboratories. One laboratory found the minimum inhibitory concentration (μg/ml), in fungal strains, of 3,5-dichloro-2,6-dinitrobenzoic acid to range from 1.56 to 6.3 when nine fungal strains (Candida spp., Cryptococcus neoformans, Aspergillus fumigatus) were tested in HR/Mops broth and Sabouraud dextrose broth.

[11] = tested on: C. albicans C316; test: Stability and activity against C. albicans C316 in various broth media; type: cell-based; conditions: even in the presence of 50% mouse serum
Experimental: (§4) In comparison, the IC50 of pentamidine, the agent now widely used to counter P. carinii fungus infections, was 2 μg/ml.

[12] = tested on: Pneumocystis carinii; test: Pneumocystis carinii short term culture, viability by incorporation of [3H] para-aminobenzoic acid; type: cell-based; conditions: fungus removed from rat lungs, read-out: IC50 against Pneumocystis carinii
Experimental: as §4

[13] = tested on: wide range of fungi; test: Minimum inhibitory concentration, second independent laboratory (standard agar dilution method), fungi; type: cell-based; conditions: Isosensitest agar
Experimental: as §3

[14] = tested on: mice; conditions: mouse, in vivo; cited from earlier work
[15] = read-out: final concentration at which fungal growth was completely inhibited

Molecule | Relative In Vitro Efficacy [2] | Number of Colonies/Plate, Plate No. 1 [3] | Number of Colonies/Plate, Plate No. 2 [3] | Number of Colonies/Plate, Plate No. 3 [3] | Number of Colonies/Plate, Plate No. 4 [3] | Number of Colonies/Plate, Plate No. 5 [3] | Number of Colonies/Plate, Plate No. 6 [3] | Number of Colonies/Plate, Plate No. 7 [3] | Number of Colonies/Plate, Plate No. 8 [3] | Number of Colonies/Plate, Plate No. 9 [3] | further results
2,4-dibromo-3,5-dinitrobenzoic acid |  |  |  |  |  |  |  |  |  |  | LD50 [1]: 240 mg/kg
O=C(O)c1cc([N+](=O)[O-])c(Cl)c([N+](=O)[O-])c1Cl [2,4-dicholoro-3,5-dinitro benzoic acid] | 10 |  |  |  |  |  |  |  |  |  | 
C[C@@H]1[C@H](O)[C@@H](C)/C=C/C=C/C=C/C=C/C=C/C=C/C=C/[C@H](O[C@@H]2O[C@H](C)[C@@H](O)[C@H](N)[C@@H]2O)C[C@@H]2O[C@](O)(C[C@@H](O)C[C@@H](O)[C@H](O)CC[C@@H](O)C[C@@H](O)CC(=O)O[C@H]1C)C[C@H](O)[C@H]2C(=O)O [Amphotericin B, amphotericin B] |  | 50 | 15 | 9 | 56 | 51 | 48 | 55 | 65 | 64 | 
O=C(O)c1c([N+](=O)[O-])c(Br)cc(Br)c1[N+](=O)[O-] [Example 1, 3,5-dibromo-2,6-dinitrobenzoic acid] | 100 |  |  |  |  |  |  |  |  |  | LD50 at 336 h [4]: ~240 mg/kg; MIC ([5]; 24 h, read-out: final concentration at which fungal growth was completely inhibited): 1.5 µg/mL (≈ 4.06 µM); MIC [6, 15]: 1.5 µg/mL (≈ 4.06 µM); MIC [7, 15]: 1.5 µg/mL (≈ 4.06 µM)
O=C(O)c1c([N+](=O)[O-])c(Cl)cc(Cl)c1[N+](=O)[O-] [Example 2, 3,5-dichloro-2,6-dinitrobenzoic acid] | 100 | 22 | 4 | 3 | 31 | 28 | 33 | 20 | 19 | 25 | water solubility [8]: water soluble; activity against bacteria [9]: not against bacteria; MIC [10]: 1.56 to 6.3 µg/mL (≈ 5.55 to 22.4 µM); stability and activity against C. albicans C316 [11]: remained stable and active; IC50 [12]: 17 µg/mL (≈ 60.5 µM); fungal inhibition compared with Amphotericin B ([13]; agar-plate conditions optimized for Amphotericin B): less fungal inhibition than Amphotericin B; MIC ([13]; wide range of fungi): 4 to 31 µg/mL (≈ 14.2 to 110 µM); fungicidal activity relative to amphotericin B ([3]; from Table 2): about twice as effective as amphotericin B; fungicidal activity relative to ketoconazole ([3]; from Table 2): about four times as effective as ketoconazole
COC(=O)c1c([N+](=O)[O-])c(Br)cc(Br)c1[N+](=O)[O-] [Example 4, methyl 3,5-dibromo-2,6-dinitrobenzoate] | 4 |  |  |  |  |  |  |  |  |  | 
CC(=O)N1CCN(c2ccc(OCC3COC(Cn4ccnc4)(c4ccc(Cl)cc4Cl)O3)cc2)CC1 (centres unmarked) [Ketoconazole, ketoconazole] |  | 82 | 39 | 37 | 94 | 103 | 78 | 120 | 122 | 95 | 
C[C@@H]1[C@H](O)[C@@H](C)/C=C/C=C/CC/C=C/C=C/C=C/C=C/C(O[C@H]2O[C@H](C)[C@@H](O)[C@H](N)[C@@H]2O)CC2O[C@](O)(CC(O)C(O)CCC(O)CC(O)CC(O)CC(=O)O[C@H]1C)CC(O)C2C(=O)O (some centres unmarked) [nystatin, reference compound] |  |  |  |  |  |  |  |  |  |  | final concentration at which fungal growth was completely inhibited ([5]; Asperigillus, 24 hours at 30°, OD 600 nm): 1.5 µg/mL; toxicity compared with the compound of the invention tested [14]: significantly higher toxicity than the compound of the invention tested; final concentration at which fungal growth was completely inhibited [6]: 1.5 µg/mL; final concentration at which fungal growth was completely inhibited [7]: 1.5 µg/mL
N=C(N)c1ccc(OCCCCCOc2ccc(C(=N)N)cc2)cc1 [pentamidine, reference compound] |  |  |  |  |  |  |  |  |  |  | IC50 [12]: 2 µg/mL (≈ 5.87 µM)
